Results reported in the supplement of paper PMC11061612.

What was measured:
Experiment in all cases: Bliss excess, mean over the matrix (fraction); higher = more synergy
[1] = test system: A4-Fuk (B-Lymphoblastic Leukemia)
In short: (§1)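 Cell lines grown in DMEM/F12 or RPMI with 10% FBS were plated in 1536-well plates and held 24 hours at 37°C, 5% CO2 before 72 hours of exposure to two-drug dose matrices, with DMSO typically at 0.2%. CellTiter-Glo 2.0 luminescence gave viability, which was converted to inhibition. Vehicle wells were set to 0 and blank wells to 1. Combination Emax is the second-highest inhibition in the matrix, and Bliss excess is the observed combination effect minus the expected EA + EB − EA·EB, where EA and EB are the single-agent effects.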

[2] = test system: ALL-SIL (T-Lymphoblastic Leukemia)
In short: as §1

[3] = test system: CADO-ES1 (Ewing's Sarcoma)
In short: as §1

[4] = test system: G-401 (Other Solid Carcinomas)
In short: as §1

[5] = test system: HCC1500 (Breast Carcinoma)
In short: as §1

[6] = test system: HCC2998 (Colorectal Carcinoma)
In short: as §1

Hey (Ovarian Carcinoma) = test system: Hey (Ovarian Carcinoma)
In short: as §1

[7] = test system: KMRC-1 (Kidney Carcinoma)
In short: as §1

[8] = test system: ML-2 (Acute Myeloid Leukemia)
In short: as §1

[9] = test system: MOLT-4 (T-Lymphoblastic Leukemia)
In short: as §1

[10] = test system: MV-4-11 (Acute Myeloid Leukemia)
In short: as §1

[11] = test system: Mo-T (Other Blood Carcinomas)
In short: as §1

[12] = test system: NCI-H1355 (Lung Adenocarcinoma)
In short: as §1

[13] = test system: NCI-H1838 (Lung Adenocarcinoma)
In short: as §1

[14] = test system: NCI-H1993 (Lung Adenocarcinoma)
In short: as §1

[15] = test system: NCI-H2122 (Lung Adenocarcinoma)
In short: as §1

[16] = test system: NCI-H522 (Lung Adenocarcinoma)
In short: as §1

[17] = test system: NCI-H650 (Lung Adenocarcinoma)
In short: as §1

[18] = test system: OACM5-1 (Esophageal Adenocarcinoma)
In short: as §1

[19] = test system: SKN (Other Solid Carcinomas)
In short: as §1

Structure (SMILES)	Bliss excess [1]	Bliss excess [2]	Bliss excess [3]	Bliss excess [4]	Bliss excess [5]	Bliss excess [6]	Bliss excess (Hey (Ovarian Carcinoma))	Bliss excess [7]	Bliss excess [8]	Bliss excess [9]	Bliss excess [10]	Bliss excess [11]	Bliss excess [12]	Bliss excess [13]	Bliss excess [14]	Bliss excess [15]	Bliss excess [16]	Bliss excess [17]	Bliss excess [18]	Bliss excess [19]
Cc1c2c(nn1C)CSCc1cc(n(C)n1)CSc1cc(c3ccccc3c1)OCCCc1c(C(=O)O)n(C)c3c-2c(Cl)ccc13 [AZD5991] + C1CN(CCC1(C(=O)N[C@@H](CCO)C2=CC=C(C=C2)Cl)N)C3=NC=NC4=C3C=CN4 [Capivasertib] (first compound max 1 µM, 7x7, partner max 3 µM)	-0.0011	-0.0384	-0.029	0.0486	0.0467	-0.0434	-0.0349	-0.0076	-0.0159	0.0964	-0.0089	-0.0046	-0.0016	0.0017	0.0523	0.0061	0.0415	-0.0044	-0.0123	-0.024
CC(=O)c1c(C)c2cnc(Nc3ccc(N4CCNCC4)cn3)nc2n(C2CCCC2)c1=O [Palbociclib] + Cn1cnc2c(F)c(Nc3ccc(Br)cc3Cl)c(C(=O)NOCCO)cc21 [Selumetinib] (first compound max 10 µM, 7x7, partner max 10 µM)	0.132	-0.0358	-0.13	-0.0428	-0.0229	0.0041	0.0222	-0.0461	0.0685	-0.012	0.0537	-0.0225	0.0542	-0.0003	0.0904	0.0823	-0.0389	0.0058	-0.0247	0.0085
COc1cccc(OCCCN)c1-c1cc(Nc2cnc(C#N)cn2)n[nH]1 [Prexasertib] + C=CCn1c(=O)c2cnc(Nc3ccc(N4CCN(C)CC4)cc3)nc2n1-c1cccc(C(C)(C)O)n1 [AZD1775] (first compound max 1 µM, partner max 1 µM)	-0.0205	0.0648	0.0737	0.0612	0.146	0.0716	0.11	0.0366	0.045	0.0873	0.0775	0.0023	-0.0039	-0.131	0.0596	0.0341	0.143	0.0382	0.105	0.0515
Cn1cnc2c(F)c(Nc3ccc(Br)cc3Cl)c(C(=O)NOCCO)cc21 [Selumetinib] + CCN(CCO)CCCOc1ccc2c(Nc3cc(CC(=O)Nc4cccc(F)c4)[nH]n3)ncnc2c1 [AZD2811] (first compound max 10 µM, 7x7, partner max 1 µM)	0.176	-0.0031	-0.0515	0.0143	-0.0123	-0.019	-0.0165	-0.0101	-0.0371	0.0174	-0.04	-0.0328	0.0102	-0.0363	0.0327	-0.0258	-0.0359	0.0056	0.0404	-0.068
CCc1c2c(nc3ccc(O)cc13)-c1cc3c(c(=O)n1C2)COC(=O)[C@]3(O)CC [SN-38] + CN(C)CCCOc1ccc(-c2ccc3ncc4c(c3c2)n(C2CCOCC2)c(=O)n4C)cn1 [AZD0156] (first compound max 0.3 µM, 7x7, partner max 1 µM)	0.0222	-0.0475	0.0718	0.0568	0.0076	0.253	0.0372	0.0671	0.0256	0.069	0.0414	-0.0527	-0.0107	-0.0741	-0.0008	0.151	0.0294	-0.0066	-0.0642	-0.0094
CN(C)CCCOc1ccc(-c2ccc3ncc4c(c3c2)n(C2CCOCC2)c(=O)n4C)cn1 [AZD0156] + C[C@@H]1COCCN1C2=NC(=NC(=C2)C3(CC3)[S@](=N)(=O)C)C4=C5C=CNC5=NC=C4 [AZD6738] (first compound max 1 µM, 7x7, partner max 10 µM)	-0.0079	-0.0759	0.0405	-0.0017	-0.0112	0.0637	-0.019	-0.0496	-0.0248	0.0033	-0.06	-0.0382	-0.0234	-0.0082	-0.0329	0.0154	-0.0258	-0.011	-0.0282	-0.0069
COc1nnc2ccc(N3CCC(c4ccc(OCCN5CCN(C)C(=O)[C@H]5C)cc4)CC3)nn12 [AZD5153] + CC1(C)CCC(CN2CCN(c3ccc(C(=O)NS(=O)(=O)c4ccc(NCC5CCOCC5)c([N+](=O)[O-])c4)c(Oc4cnc5[nH]ccc5c4)c3)CC2)=C(c2ccc(Cl)cc2)C1 [Venetoclax] (first compound max 1 µM, 7x7, partner max 1 µM)	-0.0678	0.0565	-0.088	-0.0959	-0.04	-0.0766	-0.0568	-0.063	0.0122	-0.0198	0.0014	-0.0447	-0.0243	-0.0605	-0.0456	-0.041	-0.0711	-0.132	-0.0458	-0.0295
CCN(CCO)CCCOc1ccc2c(Nc3cc(CC(=O)Nc4cccc(F)c4)[nH]n3)ncnc2c1 [AZD2811] + C=CCn1c(=O)c2cnc(Nc3ccc(N4CCN(C)CC4)cc3)nc2n1-c1cccc(C(C)(C)O)n1 [AZD1775] (first compound max 1 µM, partner max 1 µM)	-0.0665	-0.0408	-0.0086	0.0421	-0.0098	-0.0014	0.0154	0.0036	-0.102	0.0151	-0.0626	-0.0252	-0.0067	-0.0575	0.0219	0.0618	0.02	0.0178	0.0426	-0.0278
CC1(C)CCC(CN2CCN(c3ccc(C(=O)NS(=O)(=O)c4ccc(NCC5CCOCC5)c([N+](=O)[O-])c4)c(Oc4cnc5[nH]ccc5c4)c3)CC2)=C(c2ccc(Cl)cc2)C1 [Venetoclax] + C1CN(CCC1(C(=O)N[C@@H](CCO)C2=CC=C(C=C2)Cl)N)C3=NC=NC4=C3C=CN4 [Capivasertib] (first compound max 1 µM, 7x7, partner max 3 µM)	-0.035	-0.0261	-0.0206	-0.105	0.0321	-0.0133	-0.0504	-0.028	0.03	0.0315	0.0474	-0.013	-0.0379	-0.0097	-0.001	0.0256	-0.0292	-0.0395	0.0191	-0.0299
CC1(C)CCC(CN2CCN(c3ccc(C(=O)NS(=O)(=O)c4ccc(NCC5CCOCC5)c([N+](=O)[O-])c4)c(Oc4cnc5[nH]ccc5c4)c3)CC2)=C(c2ccc(Cl)cc2)C1 [Venetoclax] + CCN(CCO)CCCOc1ccc2c(Nc3cc(CC(=O)Nc4cccc(F)c4)[nH]n3)ncnc2c1 [AZD2811] (first compound max 1 µM, 7x7, partner max 1 µM)	0.0781	-0.0059	0.0054	-0.0473	0.0905	-0.0403	0.0408	-0.0456	0.0167	-0.0368	0.0071	-0.125	-0.0219	0.0204	-0.0002	-0.0579	0.0172	-0.0114	-0.0406	0.0005
C[C@@H]1COCCN1c1cc(C2([S@](C)(=N)=O)CC2)nc(-c2ccnc3[nH]ccc23)n1 [AZD6738] + O=C(c1cc(Cc2n[nH]c(=O)c3ccccc23)ccc1F)N1CCN(C(=O)C2CC2)CC1 [Olaparib] (first compound max 10 µM, 7x7, partner max 10 µM)	-0.0081	0.0291	0.03	0.0454	0.0412	0.0443	0.0379	0.0003	-0.0667	0.0556	-0.0566	0.0311	-0.0357	-0.138	0.033	-0.0303	0.0229	-0.0227	0.0071	0.0031
CC1(C)CCC(CN2CCN(c3ccc(C(=O)NS(=O)(=O)c4ccc(NCC5CCOCC5)c([N+](=O)[O-])c4)c(Oc4cnc5[nH]ccc5c4)c3)CC2)=C(c2ccc(Cl)cc2)C1 [Venetoclax] + C[C@@H](Nc1cc(F)cc(F)c1)c1cc(C(=O)N(C)C)cc2c(=O)cc(N3CCOCC3)oc12 [AZD8186] (first compound max 1 µM, 7x7, partner max 3 µM)	-0.0046	0.0344	0.117	-0.0275	0.0626	-0.0317	-0.0286	-0.0198	-0.0292	-0.0204	0.0641	0.0015	-0.0256	-0.031	0.0036	0.0055	-0.0273	-0.0257	0.0321	-0.023
CC(=O)Nc1cccc(-n2c(=O)n(C3CC3)c(=O)c3c(Nc4ccc(I)cc4F)n(C)c(=O)c(C)c32)c1 [Trametinib] + Cc1nc(-c2cn3c(n2)-c2ccc(-c4cnn(C(C)(C)C(N)=O)c4)cc2OCC3)n(C(C)C)n1 [Taselisib] (first compound max 1 µM, 7x7, partner max 10 µM)	0.127	0.267	-0.0253	0.0082	0.0452	0.0408	0.0984	0.0072	0.197	0.186	0.27	0.142	0.0292	0.0104	0.0556	0.0862	0.0504	0.136	0.03	-0.0353
COc1nnc2ccc(N3CCC(c4ccc(OCCN5CCN(C)C(=O)[C@H]5C)cc4)CC3)nn12 [AZD5153] + C=CCn1c(=O)c2cnc(Nc3ccc(N4CCN(C)CC4)cc3)nc2n1-c1cccc(C(C)(C)O)n1 [AZD1775] (first compound max 1 µM, partner max 1 µM)	-0.109	-0.0289	-0.0483	-0.0526	0.0305	-0.0083	-0.0997	-0.0108	-0.0214	0.0171	-0.0114	-0.0532	0.0155	-0.0531	-0.0758	-0.0432	-0.0617	-0.0866	0.0128	-0.0027
